Laboratory results: PubChem BioAssay AID256 (DTP/NCI, 2004)
Where “and” joins values, the source holds several entries; their conditions need not be identical. Equal values may be shown once. Inconclusive results and toxic doses are left out.

Tested on: CD2F1 mice, L1210 leukemia ip, survival T/C
Experiment: NCI In Vivo Anticancer Drug Screen. Data for tumor model L1210 Leukemia (intraperitoneal) in CD2F1 (CDF1) mice
Conditions: higher = longer survival
Method in brief: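 Tumor-bearing mice (transplanted tumor) were split into treated and vehicle control groups, and the measured endpoint of each treated group was divided by that of its vehicle controls.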

[1] = endpoint: mean survival time, dose: 37.5 mg/kg/injection, schedule: Q01DX009 (ip), vehicle: saline with Tween-80
[2] = endpoint: mean survival time, dose: 100.0 mg/kg/injection, schedule: Q01DX001 (ip), vehicle: saline with Tween-80
[3] = endpoint: mean survival time, dose: 100.0 mg/kg/injection, schedule: Q01DX009 (ip), vehicle: saline with Tween-80
[4] = endpoint: mean survival time, dose: 100.0 mg/kg/injection, schedule: Q04DX003 (ip), vehicle: saline with Tween-80
[5] = endpoint: mean survival time, dose: 200.0 mg/kg/injection, schedule: Q04DX003 (ip), vehicle: saline with Tween-80
[6] = endpoint: mean survival time, dose: 400.0 mg/kg/injection, schedule: Q04DX003 (ip), vehicle: saline with Tween-80
[7] = endpoint: mean survival time, dose: 200.0 mg/kg/injection, schedule: Q01DX009 (ip), vehicle: saline with Tween-80
[8] = endpoint: mean survival time, dose: 400.0 mg/kg/injection, schedule: Q01DX009 (ip), vehicle: saline with Tween-80

What does the source list for `O/N=C/c1ccccc1`?
T/C (endpoint: mean survival time, dose: 11.0 mg/kg/injection, schedule: Q01DX009 (ip), vehicle: saline with Tween-80): 108 % of control; T/C (endpoint: mean survival time, dose: 16.5 mg/kg/injection, schedule: Q01DX009 (ip), vehicle: saline with Tween-80): 94 % of control; T/C (endpoint: mean survival time, dose: 25.0 mg/kg/injection, schedule: Q01DX001 (ip), vehicle: saline): 97 % of control; T/C (endpoint: mean survival time, dose: 25.0 mg/kg/injection, schedule: Q01DX009 (ip), vehicle: saline with Tween-80): 97 % of control; T/C [1]: 95 % of control; T/C (endpoint: mean survival time, dose: 50.0 mg/kg/injection, schedule: Q01DX001 (ip), vehicle: saline): 97 % of control; T/C [2]: 97 % of control; T/C (endpoint: mean survival time, dose: 100.0 mg/kg/injection, schedule: Q01DX001 (ip), vehicle: saline): 101 % of control

Which results are given for `O=C(O)C[As](=O)(O)O`?
T/C (endpoint: mean survival time, dose: 15.0 mg/kg/injection, schedule: Q01DX009 (ip), vehicle: saline): 100 % of control; T/C (endpoint: mean survival time, dose: 30.0 mg/kg/injection, schedule: Q01DX009 (ip), vehicle: saline): 108 % of control; T/C (endpoint: mean survival time, dose: 60.0 mg/kg/injection, schedule: Q01DX009 (ip), vehicle: saline): 91 % of control

What does the source list for `Nc1cc(Cl)c2[nH]cnc2n1`?
T/C (endpoint: mean survival time, dose: 6.25 mg/kg/injection, schedule: Q01DX009 (ip), vehicle: distilled water + Tween-80): 107 % of control; T/C (endpoint: mean survival time, dose: 6.25 mg/kg/injection, schedule: Q01DX009 (ip), vehicle: water): 102 % of control; T/C (endpoint: mean survival time, dose: 12.5 mg/kg/injection, schedule: Q01DX009 (ip), vehicle: distilled water + Tween-80): 120 % of control; T/C (endpoint: mean survival time, dose: 12.5 mg/kg/injection, schedule: Q01DX009 (ip), vehicle: water): 113 % of control; T/C (endpoint: mean survival time, dose: 25.0 mg/kg/injection, schedule: Q01DX009 (ip), vehicle: distilled water + Tween-80): 150 % of control; T/C (endpoint: mean survival time, dose: 50.0 mg/kg/injection, schedule: Q01DX009 (ip), vehicle: distilled water + Tween-80): 150 % of control and 164 % of control; T/C (endpoint: mean survival time, dose: 50.0 mg/kg/injection, schedule: Q04DX003 (ip), vehicle: Klucel (hydroxypropylcellulose) (HPC)): 118 % of control and 110 % of control; T/C (endpoint: mean survival time, dose: 85.0 mg/kg/injection, schedule: Q04DX003 (ip), vehicle: saline with Tween-80): 108 % of control; T/C (endpoint: mean survival time, dose: 100.0 mg/kg/injection, schedule: Q01DX009 (ip), vehicle: distilled water + Tween-80): 151 % of control and 185 % of control; T/C (endpoint: mean survival time, dose: 100.0 mg/kg/injection, schedule: Q04DX003 (ip), vehicle: Klucel (hydroxypropylcellulose) (HPC)): 115 % of control and 109 % of control; T/C (endpoint: mean survival time, dose: 200.0 mg/kg/injection, schedule: Q01DX009 (ip), vehicle: distilled water + Tween-80): 153 % of control and 228 % of control; T/C (endpoint: mean survival time, dose: 200.0 mg/kg/injection, schedule: Q04DX003 (ip), vehicle: Klucel (hydroxypropylcellulose) (HPC)): 108 % of control; T/C (endpoint: mean survival time, dose: 300.0 mg/kg/injection, schedule: Q04DX003 (ip), vehicle: Klucel (hydroxypropylcellulose) (HPC)): 120 % of control and 109 % of control; T/C (endpoint: mean survival time, dose: 400.0 mg/kg/injection, schedule: Q01DX009 (ip), vehicle: distilled water + Tween-80): 100 % of control; T/C (endpoint: median survival time, dose: 6.0 mg/kg/injection, schedule: Q01DX009 (ip), vehicle: Klucel (hydroxypropylcellulose) (HPC)): 108 % of control; T/C (endpoint: median survival time, dose: 12.0 mg/kg/injection, schedule: Q01DX009 (ip), vehicle: Klucel (hydroxypropylcellulose) (HPC)): 119 % of control; T/C (endpoint: median survival time, dose: 25.0 mg/kg/injection, schedule: Q01DX005 (ip), vehicle: saline with Tween-80): 120 % of control; T/C (endpoint: median survival time, dose: 25.0 mg/kg/injection, schedule: Q01DX009 (ip), vehicle: Klucel (hydroxypropylcellulose) (HPC)): 152 % of control; T/C (endpoint: median survival time, dose: 25.0 mg/kg/injection, schedule: Q01DX009 (ip), vehicle: saline with Tween-80): 153 % of control; T/C (endpoint: median survival time, dose: 50.0 mg/kg/injection, schedule: Q01DX009 (ip), vehicle: Klucel (hydroxypropylcellulose) (HPC)): 172 % of control; T/C (endpoint: median survival time, dose: 50.0 mg/kg/injection, schedule: Q01DX009 (ip), vehicle: saline with Tween-80): 188 % of control; T/C (endpoint: median survival time, dose: 100.0 mg/kg/injection, schedule: Q01DX005 (ip), vehicle: saline with Tween-80): 161 % of control; T/C (endpoint: median survival time, dose: 100.0 mg/kg/injection, schedule: Q01DX009 (ip), vehicle: Klucel (hydroxypropylcellulose) (HPC)): 178 % of control; T/C (endpoint: median survival time, dose: 100.0 mg/kg/injection, schedule: Q01DX009 (ip), vehicle: saline with Tween-80): 160 % of control; T/C (endpoint: median survival time, dose: 200.0 mg/kg/injection, schedule: Q01DX005 (ip), vehicle: saline with Tween-80): 159 % of control

With `NS(=O)(=O)c1ccc(N=Nc2ccc([As](=O)(O)O)cc2)cc1` as the molecule, how does the T/C (endpoint: mean survival time, dose: 50.0 mg/kg/injection, schedule: Q04DX003 (ip), vehicle: saline) read?
The T/C was 104 % of control.

What about the T/C (endpoint: mean survival time, dose: 100.0 mg/kg/injection, schedule: Q04DX003 (ip), vehicle: saline) of the same molecule?
Its T/C is 101 % of control.

And the T/C (endpoint: mean survival time, dose: 200.0 mg/kg/injection, schedule: Q04DX003 (ip), vehicle: saline)?
The T/C was 101 % of control.

`O=C(CCCN1CCC(O)CC1)c1ccccc1` was tested. Which T/C (endpoint: mean survival time, dose: 50.0 mg/kg/injection, schedule: Q01DX009 (ip), vehicle: saline with Tween-80) did it give?
The T/C was 88 % of control.

What about the T/C [3] of the same molecule?
Its T/C is 94 % of control.

What does the source list for `Oc1ccc(C/C=C/c2ccccc2)cc1`?
T/C [4]: 102 % of control; T/C [5]: 100 % of control; T/C [6]: 102 % of control

How did the T/C [3] turn out when `COc1ccc2nc(C(C)O)[nH]c2c1` (stereo not drawn) was run?
The T/C was 89 % of control.

What about the T/C [4] of the same molecule?
The T/C was 103 % of control.

And the T/C [7]?
The T/C was 93 % of control.

And the T/C [5]?
Its T/C is 101 % of control.

And the T/C [8]?
Its T/C is 89 % of control.

And the T/C [6]?
The T/C was 96 % of control.

`Cc1cnc([Se])[nH]c1=O` was tested. Which T/C (endpoint: mean survival time, dose: 25.0 mg/kg/injection, schedule: Q01DX005 (ip), vehicle: water) did it give?
Its T/C is 87 % of control.

What about the T/C (endpoint: mean survival time, dose: 50.0 mg/kg/injection, schedule: Q01DX005 (ip), vehicle: water) of the same molecule?
Its T/C is 90 % of control.

Which results are given for `CCCCCCCCCCCCCCCCCCOCCCCCCCCCCCCCCCCCC`?
T/C [3]: 102 % of control; T/C [4]: 95 % of control; T/C [7]: 98 % of control; T/C [5]: 88 % of control; T/C [8]: 93 % of control; T/C [6]: 92 % of control

Which T/C (endpoint: mean survival time, dose: 37.5 mg/kg/injection, schedule: Q01DX009 (ip), vehicle: saline) does the source give for `Cc1cc(=S)[nH]c2ccccc12` here?
The T/C was 91 % of control.

And the T/C (endpoint: mean survival time, dose: 75.0 mg/kg/injection, schedule: Q01DX009 (ip), vehicle: saline)?
The T/C was 91 % of control.

And the T/C (endpoint: mean survival time, dose: 150.0 mg/kg/injection, schedule: Q01DX009 (ip), vehicle: saline)?
The T/C was 96 % of control.

How did the T/C [1] turn out when `C=CCOc1ccc(Cl)cc1Cl` was run?
Its T/C is 93 % of control.

What about the T/C (endpoint: mean survival time, dose: 75.0 mg/kg/injection, schedule: Q01DX009 (ip), vehicle: saline with Tween-80) of the same molecule?
The T/C was 101 % of control.

And the T/C (endpoint: mean survival time, dose: 150.0 mg/kg/injection, schedule: Q01DX009 (ip), vehicle: saline with Tween-80)?
The T/C was 97 % of control.

For `CNC1=C(C)C(=O)C2=C(C1=O)C(COC(N)=O)C1(OC)C3NC3CN21` (stereo not drawn), which T/C (endpoint: mean survival time, dose: 1.5 mg/kg/injection, schedule: Q01DX001 (ip), vehicle: water) is on record?
The T/C was 102 % of control.

And the T/C (endpoint: mean survival time, dose: 3.0 mg/kg/injection, schedule: Q01DX001 (ip), vehicle: water)?
Its T/C is 100 % of control.

What about the T/C (endpoint: mean survival time, dose: 6.0 mg/kg/injection, schedule: Q01DX001 (ip), vehicle: water) of the same molecule?
The T/C was 108 % of control.

And the T/C (endpoint: mean survival time, dose: 12.0 mg/kg/injection, schedule: Q01DX001 (ip), vehicle: water)?
The T/C was 118 % of control.

And the T/C (endpoint: mean survival time, dose: 24.0 mg/kg/injection, schedule: Q01DX001 (ip), vehicle: water)?
Its T/C is 124 % of control.

For `CC1CC(C)(C)N=C(Cc2ccccc2)O1` (stereo not drawn), which T/C [2] is on record?
The T/C was 101 % of control.

And the T/C (endpoint: mean survival time, dose: 200.0 mg/kg/injection, schedule: Q01DX001 (ip), vehicle: saline with Tween-80)?
The T/C was 93 % of control.

What about the T/C (endpoint: mean survival time, dose: 400.0 mg/kg/injection, schedule: Q01DX001 (ip), vehicle: saline with Tween-80) of the same molecule?
The T/C was 96 % of control.

How did the T/C (endpoint: mean survival time, dose: 6.25 mg/kg/injection, schedule: Q04DX003 (ip), vehicle: saline with Tween-80) turn out when `Cc1ccc(Sc2cccc3c(C)c4cccc5c4c(c23)C[S+]5c2ccc(C)cc2)cc1` (stereo not drawn) was run?
Its T/C is 98 % of control.
